# Source: ChEMBL document CHEMBL3885861, “Open TG-GATES”
# Species on record: Rattus norvegicus
# Test: Open TG-GATES - Regimen: Daily Repeat
# Assay type: toxicity, organism-based, Sprague-Dawley
# Parameters: regimen Daily Repeat, gender Male, age 6 weeks
# Details: in vivo, po, 50 mg/kg, route gavage, dose level Low; for APTT / Bas / Eos / Fbg / Hb / Ht / Lym / MCH / MCHC / MCV / Mono / Neu / PT / Plat / RBC / Ret / WBC: tissue Blood; for KIDNEY_L / KIDNEY_R / KIDNEY_TOTAL: tissue Kidney; for LIVER: tissue Liver; for A/G / ALP / ALT / AST / BUN / CRE / Ca / Cl / DBIL / GLC / IP / K / LDH / Na / PL / RALB / TBIL / TC / TG / TP / gamma-GTP: tissue Plasma
smiles,measurement,setting,value
CN1C(=O)CCS(=O)(=O)C1c1ccc(Cl)cc1 (configuration not stated) [CHLORMEZANONE],TERMINAL_BW,"72 h, time 3 day",226.8 g
same,APTT,"72 h, time 3 day",15.5 s
same,Bas,"72 h, time 3 day",0%
same,Eos,"72 h, time 3 day",1%
same,Fbg,"72 h, time 3 day",275.6 mg/dL
same,Hb,"72 h, time 3 day",13.5 g/dL
same,Ht,"72 h, time 3 day",40.1%
same,Lym,"72 h, time 3 day",75.2%
same,MCH,"72 h, time 3 day",22 pg
same,MCHC,"72 h, time 3 day",33.8%
same,MCV,"72 h, time 3 day",65.1 fL
same,Mono,"72 h, time 3 day",2.8%
same,Neu,"72 h, time 3 day",20.6%
same,PT,"72 h, time 3 day",12 s
same,Plat,"72 h, time 3 day",108.6 x10_4/uL
same,RBC,"72 h, time 3 day",616.2 x10_4/ul
same,Ret,"72 h, time 3 day",6.5%
same,WBC,"72 h, time 3 day",81.9 x10_2/uL
same,KIDNEY_L,"72 h, time 3 day",0.9 g
same,KIDNEY_R,"72 h, time 3 day",0.9 g
same,KIDNEY_TOTAL,"72 h, time 3 day",1.8 g
same,LIVER,"72 h, time 3 day",11.1 g
same,A/G,"72 h, time 3 day",0.9
same,ALP,"72 h, time 3 day",1849 IU/L
same,ALT,"72 h, time 3 day",50.8 IU/L
same,AST,"72 h, time 3 day",75.8 IU/L
same,BUN,"72 h, time 3 day",15.6 mg/dL
same,CRE,"72 h, time 3 day",0.2 mg/dL
same,Ca,"72 h, time 3 day",11 mg/dL
same,Cl,"72 h, time 3 day",107.2 meq/L
same,DBIL,"72 h, time 3 day",0.012 mg/dL
same,GLC,"72 h, time 3 day",188.8 mg/dL
same,IP,"72 h, time 3 day",7.5 mg/dL
same,K,"72 h, time 3 day",4.3 meq/L
same,LDH,"72 h, time 3 day",64.8 IU/L
same,Na,"72 h, time 3 day",143.8 meq/L
same,PL,"72 h, time 3 day",136.4 mg/dL
same,RALB,"72 h, time 3 day",2.7 g/dL
same,TBIL,"72 h, time 3 day",0.024 mg/dL
same,TC,"72 h, time 3 day",78.4 mg/dL
same,TG,"72 h, time 3 day",73.2 mg/dL
same,TP,"72 h, time 3 day",5.8 g/dL
same,gamma-GTP,"72 h, time 3 day",1 IU/L
same,TERMINAL_BW,"[…], time 7 day",270.7 g
same,TERMINAL_BW,"[…], time 14 day",321.2 g
same,TERMINAL_BW,"[…], time 28 day",415.3 g
same,APTT,"[…], time 7 day",18.3 s
same,Bas,"[…], time 7 day",0%
same,Eos,"[…], time 7 day",0.8%
same,Fbg,"[…], time 7 day",275.8 mg/dL
same,Hb,"[…], time 7 day",13.2 g/dL
same,Ht,"[…], time 7 day",39.2%
same,Lym,"[…], time 7 day",79.2%
same,MCH,"[…], time 7 day",20.7 pg
same,MCHC,"[…], time 7 day",33.7%
same,MCV,"[…], time 7 day",61.4 fL
same,Mono,"[…], time 7 day",3%
same,Neu,"[…], time 7 day",16.2%
same,PT,"[…], time 7 day",11.8 s
same,Plat,"[…], time 7 day",118.3 x10_4/uL
same,RBC,"[…], time 7 day",639.2 x10_4/ul
same,Ret,"[…], time 7 day",6.4%
same,WBC,"[…], time 7 day",84.5 x10_2/uL
same,APTT,"[…], time 14 day",16.3 s
same,Bas,"[…], time 14 day",0%
same,Eos,"[…], time 14 day",0.8%
same,Fbg,"[…], time 14 day",282.2 mg/dL
same,Hb,"[…], time 14 day",14.6 g/dL
same,Ht,"[…], time 14 day",42.3%
same,Lym,"[…], time 14 day",83.4%
same,MCH,"[…], time 14 day",20.9 pg
same,MCHC,"[…], time 14 day",34.6%
same,MCV,"[…], time 14 day",60.3 fL
same,Mono,"[…], time 14 day",1.6%
same,Neu,"[…], time 14 day",13.6%
same,PT,"[…], time 14 day",11.7 s
same,Plat,"[…], time 14 day",118.8 x10_4/uL
same,RBC,"[…], time 14 day",700.4 x10_4/ul
same,Ret,"[…], time 14 day",4.7%
same,WBC,"[…], time 14 day",92.5 x10_2/uL
same,APTT,"[…], time 28 day",17.5 s
same,Bas,"[…], time 28 day",0%
same,Eos,"[…], time 28 day",1.2%
same,Fbg,"[…], time 28 day",274.6 mg/dL
same,Hb,"[…], time 28 day",15.1 g/dL
same,Ht,"[…], time 28 day",43%
same,Lym,"[…], time 28 day",77.6%
same,MCH,"[…], time 28 day",19.7 pg
same,MCHC,"[…], time 28 day",35.1%
same,MCV,"[…], time 28 day",56.2 fL
same,Mono,"[…], time 28 day",2.4%
same,Neu,"[…], time 28 day",18.6%
same,PT,"[…], time 28 day",11.7 s
same,Plat,"[…], time 28 day",106.6 x10_4/uL
same,RBC,"[…], time 28 day",765 x10_4/ul
same,Ret,"[…], time 28 day",2.5%
same,WBC,"[…], time 28 day",77 x10_2/uL
same,KIDNEY_L,"[…], time 7 day",1.1 g
same,KIDNEY_R,"[…], time 7 day",1.1 g
same,KIDNEY_TOTAL,"[…], time 7 day",2.1 g
same,KIDNEY_L,"[…], time 14 day",1.2 g
same,KIDNEY_R,"[…], time 14 day",1.2 g
same,KIDNEY_TOTAL,"[…], time 14 day",2.4 g
same,KIDNEY_L,"[…], time 28 day",1.3 g
same,KIDNEY_R,"[…], time 28 day",1.3 g
same,KIDNEY_TOTAL,"[…], time 28 day",2.7 g
same,LIVER,"[…], time 7 day",13.8 g
same,LIVER,"[…], time 14 day",16.1 g
same,LIVER,"[…], time 28 day",17.9 g
same,A/G,"[…], time 7 day",0.9
same,ALP,"[…], time 7 day",1690.2 IU/L
same,ALT,"[…], time 7 day",50 IU/L
same,AST,"[…], time 7 day",68.4 IU/L
same,BUN,"[…], time 7 day",17.8 mg/dL
same,CRE,"[…], time 7 day",0.2 mg/dL
same,Ca,"[…], time 7 day",11.5 mg/dL
same,Cl,"[…], time 7 day",106.4 meq/L
same,DBIL,"[…], time 7 day",0.016 mg/dL
same,GLC,"[…], time 7 day",183.8 mg/dL
same,IP,"[…], time 7 day",7.2 mg/dL
same,K,"[…], time 7 day",4.4 meq/L
same,LDH,"[…], time 7 day",74.2 IU/L
same,Na,"[…], time 7 day",143.4 meq/L
same,PL,"[…], time 7 day",150.8 mg/dL
same,RALB,"[…], time 7 day",2.8 g/dL
same,TBIL,"[…], time 7 day",0.028 mg/dL
same,TC,"[…], time 7 day",84.2 mg/dL
same,TG,"[…], time 7 day",75.2 mg/dL
same,TP,"[…], time 7 day",6 g/dL
same,gamma-GTP,"[…], time 7 day",1 IU/L
same,A/G,"[…], time 14 day",0.9
same,ALP,"[…], time 14 day",1402 IU/L
same,ALT,"[…], time 14 day",41 IU/L
same,AST,"[…], time 14 day",61 IU/L
same,BUN,"[…], time 14 day",14.2 mg/dL
same,CRE,"[…], time 14 day",0.2 mg/dL
same,Ca,"[…], time 14 day",11.3 mg/dL
same,Cl,"[…], time 14 day",106.8 meq/L
same,DBIL,"[…], time 14 day",0.008 mg/dL
same,GLC,"[…], time 14 day",180.4 mg/dL
same,IP,"[…], time 14 day",6.9 mg/dL
same,K,"[…], time 14 day",4.1 meq/L
same,LDH,"[…], time 14 day",65.8 IU/L
same,Na,"[…], time 14 day",143.6 meq/L
same,PL,"[…], time 14 day",140.8 mg/dL
same,RALB,"[…], time 14 day",2.8 g/dL
same,TBIL,"[…], time 14 day",0.056 mg/dL
same,TC,"[…], time 14 day",83 mg/dL
same,TG,"[…], time 14 day",87.6 mg/dL
same,TP,"[…], time 14 day",6.1 g/dL
same,gamma-GTP,"[…], time 14 day",1 IU/L
same,A/G,"[…], time 28 day",0.8
same,ALP,"[…], time 28 day",1043 IU/L
same,ALT,"[…], time 28 day",40.6 IU/L
same,AST,"[…], time 28 day",60 IU/L
same,BUN,"[…], time 28 day",15.4 mg/dL
same,CRE,"[…], time 28 day",0.3 mg/dL
same,Ca,"[…], time 28 day",10.6 mg/dL
same,Cl,"[…], time 28 day",106.6 meq/L
same,DBIL,"[…], time 28 day",0.01 mg/dL
same,GLC,"[…], time 28 day",176.6 mg/dL
same,IP,"[…], time 28 day",5.8 mg/dL
same,K,"[…], time 28 day",4.2 meq/L
same,LDH,"[…], time 28 day",53 IU/L
same,Na,"[…], time 28 day",142.8 meq/L
same,PL,"[…], time 28 day",137.4 mg/dL
same,RALB,"[…], time 28 day",2.8 g/dL
same,TBIL,"[…], time 28 day",0.06 mg/dL
same,TC,"[…], time 28 day",71.2 mg/dL
same,TG,"[…], time 28 day",117 mg/dL
same,TP,"[…], time 28 day",6.3 g/dL
same,gamma-GTP,"[…], time 28 day",1 IU/L
